Laboratory results as given in patent US20210378193A1, “HAPLOID EMBRYOGENESIS” (STICHTING WAGENINGEN RESEARCH, priority 2013, published 2021).

Experiments:
[1] = tested on: B. rapa genotypes microspore culture; assay: embryogenic cell divisions in Brassica rapa microspore culture; assay type: cell-based; conditions: 0.5 μM TSA, six B. rapa genotypes
Procedure: The following B. rapa genotypes were tested in an experiment that measured t h e embryogenic activity of 0.5 μM TSA in microspore culture against respective controls in the absence of TSA: Microspores were obtained from donor buds. Donor buds were ranked from youngest (1) tooldest (3) developmental stage, whereby (2) is an intermediate stage. […] The data also indicates how genotype and/or donor bud stage may influence the level of embryogenic cell divisions caused by enhancement with TSA treatment over controlsin […]. Such stage-dependency is a normal observation in this tissue culture system.

[2] = tested on: histone H3 and H4; assay: Western blot of protein and histone acetylation in B. napus microspore cultures; assay type: cell-based, Brassica napus
Procedure: Freshly isolated microspores and microspores cultured for 8 hours under different experimental conditions were harvested by centrifugation. Proteins were extracted by boiling in SDS-sample buffer (30 μl per ml of culture) and electrophoresed in a Midget 12.5% SDS-PAGE gel under reducing conditions. After transfer of the proteins to PVDF membrane and blocking with 5% milk powder in PBS, 0.1% Tween 20, the blots were incubated for 2 hours with primary antibody (1:2000 dilution). The primary antibodies used in this study are as follows: anti-acetyl-Lysine (ICP0380; ImmuneChem Pharmaceuticals), anti-Histone H3 (ab1791; Abcam), anti-Histone H4 (clone 62-141-13; Millipore), and anti-acetyl-Histone H3 and anti-acetyl-Histone H4 (Millipore). Secondary goat anti-rabbit-HRP antibody (Sigma) was used in a 1:2000 dilution, and signals were detected by using enhanced chemiluminescence (SuperSignal West Femto Chemiluminescent Substrate, Pierce). An acetylated lysine antibody was used in combination with protein gel blotting to identify proteins whose acetylation status changes in 8-hour heat-stress plus TSA-treated B. napus microspore cultures compared to heat-stressed control cultures. […] Panels show: (A)=Western blot of total acetylated proteins in microspore cultures treated for eight hours with DMSO (control) or TSA—proteins in the range of 10-25 kDa are differentially acetylated after TSA treatment compared to the control; (B)=Western blot of total and acetylated (Ac) histone H3 and H4 in microspore cultures treated for eight hours with DMSO (control) or TSA. The percentages of sporophytic divisions in the different cultures at day 5 are shown under each sample. […] The acetylation status of histones H3 and H4 was determined during microspore culture using acetylated histone H3 (Ac-H3) and H4 (Ac-H4) antibodies. Microspore cultures were started from buds containing mostly binucleate pollen and placed for eight hours at either 18° C. or 33° C. with or without 0.5 μM TSA. […] (FIG. 8B).

[3] = tested on: Arabidopsis immature male gametophytes; assay: Arabidopsis anther culture, sporophytic division of immature male gametophytes; assay type: cell-based; conditions: Col0 anthers, 25° C., 0.5 μM TSA, five days; never observed without TSA
Procedure: Arabidopsis flower buds at stage 11 were collected for anther culture. Flower buds were surface sterilized in 2% bleach for 10 minutes, then rinsed three times in distilled water. The anthers (without filament) were placed in a liquid NLN-13 medium containing 0.5 μM TSA or the same volume of DMSO and then cut in half transversely in the medium to release the microspores. The cultures were placed at 25° C. for 20 hours in the dark. The medium was then replaced by fresh NLN-13 medium by pipetting gently, and the cultures incubated at 25° C. for an additional four days. Free and loosely attached microspores were collected and stained with DAPI. Arabidopsis hda T-DNA insertion lines were obtained from Nottingham Arabidopsis Stock Centre. At least 300 microspores per sample were counted.
Multicellular structures that resemble the Type II and IV structures seen in Brassica microspore culture are produced when stage 11 Arabidopsis anthers are cultured at 25° C. with 0.5 μM TSA. […] TSA induces embryogenic cell divisions in Arabidopsis immature male gametophytes. Panels show: (A)=DAPI stained anther in TSA-treated culture showing multicellular, sporophytic structures derived from immature male gametophytes (arrow). […] (B)=cleared anther from a control culture showing lack of sporophytic cell proliferation. […]

## CC(/C=C/C(=O)NO)=C\[C@@H](C)C(=O)c1ccc(N(C)C)cc1 [TSA, trichostatin A]
[1]
  total number of embryogenic cells per bud size compared to the control: greatly increases
[2]; 0.5 μM TSA, eight hours
  total amount of histone H3 and H4: no clear effect
[2]; 0.5 μM TSA, eight hours at 18° C. and 33° C., divisions at day 5
  sporophytic divisions compared to untreated controls: greatly enhanced
[2]; 0.5 μM TSA, eight hours, 18° C. and 33° C.
  level of histone H3 and H4 acetylation relative to control: increased dramatically
[2]; 8-hour heat-stress plus TSA versus heat-stressed control
  acetylation of small molecular weight proteins in the range of 10-25 kDa: Increased protein acetylation
[3]
  percentage of immature male gametophytes that divided sporophytically: 0-5%
